The target in test [1] is T1, Gastrin/cholecystokinin type B receptor (Homo sapiens, UniProt P32239).
T1 sequence (P32239 whole entry): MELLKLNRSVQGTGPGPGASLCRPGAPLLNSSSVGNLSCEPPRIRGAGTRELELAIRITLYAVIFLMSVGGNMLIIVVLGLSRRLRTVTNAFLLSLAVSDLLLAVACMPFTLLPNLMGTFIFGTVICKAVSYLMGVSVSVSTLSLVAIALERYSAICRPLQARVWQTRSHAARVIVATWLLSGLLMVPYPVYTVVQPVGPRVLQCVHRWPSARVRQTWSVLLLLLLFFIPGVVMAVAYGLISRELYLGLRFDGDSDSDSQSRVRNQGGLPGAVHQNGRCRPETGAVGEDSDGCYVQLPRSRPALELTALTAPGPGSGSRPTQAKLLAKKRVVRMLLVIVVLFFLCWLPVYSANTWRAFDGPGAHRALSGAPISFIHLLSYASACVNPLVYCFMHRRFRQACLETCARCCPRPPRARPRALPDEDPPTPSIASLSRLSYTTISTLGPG

The target in test [2] is T2, Muscarinic acetylcholine receptor M2 (Homo sapiens, UniProt P08172).
T2 sequence (P08172 whole entry): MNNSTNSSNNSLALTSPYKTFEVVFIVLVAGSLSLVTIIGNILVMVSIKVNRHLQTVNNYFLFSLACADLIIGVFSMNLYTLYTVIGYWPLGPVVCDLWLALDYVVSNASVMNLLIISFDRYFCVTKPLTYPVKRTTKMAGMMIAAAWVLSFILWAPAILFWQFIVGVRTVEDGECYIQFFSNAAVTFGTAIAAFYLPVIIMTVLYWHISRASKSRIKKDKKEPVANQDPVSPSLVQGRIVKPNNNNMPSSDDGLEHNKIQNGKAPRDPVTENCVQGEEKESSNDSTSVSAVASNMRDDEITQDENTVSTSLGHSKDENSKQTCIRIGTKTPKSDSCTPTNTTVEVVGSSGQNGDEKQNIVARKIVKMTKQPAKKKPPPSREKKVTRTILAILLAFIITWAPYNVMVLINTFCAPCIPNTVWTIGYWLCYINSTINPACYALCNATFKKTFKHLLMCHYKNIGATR
Format: functional, cell-based.

The target in test [3] is T3, 5-hydroxytryptamine receptor 1A (Homo sapiens, UniProt P08908).
T3 sequence (P08908 whole entry): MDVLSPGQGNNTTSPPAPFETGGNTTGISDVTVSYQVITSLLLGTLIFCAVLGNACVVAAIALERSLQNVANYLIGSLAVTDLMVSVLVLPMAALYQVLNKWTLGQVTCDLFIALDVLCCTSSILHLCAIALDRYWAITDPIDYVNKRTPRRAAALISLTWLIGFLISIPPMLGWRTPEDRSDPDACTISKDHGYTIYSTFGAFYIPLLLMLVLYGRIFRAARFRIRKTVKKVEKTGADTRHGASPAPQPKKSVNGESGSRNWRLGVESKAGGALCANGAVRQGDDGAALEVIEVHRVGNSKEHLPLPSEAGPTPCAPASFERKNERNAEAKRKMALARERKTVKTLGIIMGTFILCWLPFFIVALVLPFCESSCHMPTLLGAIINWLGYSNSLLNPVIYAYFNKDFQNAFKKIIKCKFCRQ
Format: functional, cell-based.

The target in test [4] is T4, Equilibrative nucleoside transporter 1 (Homo sapiens, UniProt Q99808).
T4 sequence (Q99808 whole entry): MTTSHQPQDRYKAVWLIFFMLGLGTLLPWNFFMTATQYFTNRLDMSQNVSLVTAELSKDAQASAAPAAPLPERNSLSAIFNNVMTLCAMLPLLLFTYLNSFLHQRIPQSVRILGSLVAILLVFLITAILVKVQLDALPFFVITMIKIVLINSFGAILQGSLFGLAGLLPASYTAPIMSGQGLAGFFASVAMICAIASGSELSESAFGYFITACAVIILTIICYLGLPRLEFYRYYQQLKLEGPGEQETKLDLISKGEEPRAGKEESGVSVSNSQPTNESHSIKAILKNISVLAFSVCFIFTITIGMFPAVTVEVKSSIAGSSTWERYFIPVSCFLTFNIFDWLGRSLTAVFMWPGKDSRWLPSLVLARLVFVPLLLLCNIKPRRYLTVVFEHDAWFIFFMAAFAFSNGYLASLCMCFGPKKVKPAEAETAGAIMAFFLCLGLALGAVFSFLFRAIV

Test [5] addresses Muscarinic acetylcholine receptor M3 (Homo sapiens, UniProt P20309).
Test [6] has as its target Sodium-dependent serotonin transporter (Homo sapiens, UniProt P31645).
Test [7] has as its target T5, Alpha-2B adrenergic receptor (Homo sapiens, UniProt P18089).
T5 sequence (P18089 whole entry): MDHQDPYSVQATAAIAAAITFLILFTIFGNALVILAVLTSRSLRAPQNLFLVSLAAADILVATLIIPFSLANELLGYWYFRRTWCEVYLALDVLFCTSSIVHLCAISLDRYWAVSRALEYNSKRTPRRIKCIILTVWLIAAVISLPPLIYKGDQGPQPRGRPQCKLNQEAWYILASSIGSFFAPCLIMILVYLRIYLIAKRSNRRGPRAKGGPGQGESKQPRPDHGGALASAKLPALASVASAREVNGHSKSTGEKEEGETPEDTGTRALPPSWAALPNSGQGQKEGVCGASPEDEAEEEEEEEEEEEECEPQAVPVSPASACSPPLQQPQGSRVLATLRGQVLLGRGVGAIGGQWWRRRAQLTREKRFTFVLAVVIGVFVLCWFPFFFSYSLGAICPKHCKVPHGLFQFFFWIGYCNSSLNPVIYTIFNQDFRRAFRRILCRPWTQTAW

The target in test [8] is T6, Alpha-1A adrenergic receptor (Homo sapiens, UniProt P35348).
T6 sequence (P35348 whole entry): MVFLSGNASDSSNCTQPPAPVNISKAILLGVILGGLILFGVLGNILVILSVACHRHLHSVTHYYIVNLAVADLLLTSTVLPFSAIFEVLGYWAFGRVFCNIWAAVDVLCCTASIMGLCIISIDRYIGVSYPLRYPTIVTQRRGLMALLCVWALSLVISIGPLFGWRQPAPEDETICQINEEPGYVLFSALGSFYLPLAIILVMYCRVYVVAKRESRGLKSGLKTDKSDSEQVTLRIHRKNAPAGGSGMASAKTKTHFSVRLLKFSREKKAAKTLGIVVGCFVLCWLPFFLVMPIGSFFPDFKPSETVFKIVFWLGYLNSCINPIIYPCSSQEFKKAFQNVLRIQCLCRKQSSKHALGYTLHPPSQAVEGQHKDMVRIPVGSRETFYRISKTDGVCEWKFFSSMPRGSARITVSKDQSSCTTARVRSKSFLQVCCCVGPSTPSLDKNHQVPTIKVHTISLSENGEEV
It counts as functional, cell-based.

For test [9], the target named is T6, Alpha-1A adrenergic receptor. It counts as functional, cell-based. This is another data set of the same source.

The values below come from ChEMBL document CHEMBL5291721, “A preclinical secondary pharmacology resource illuminates target-adverse drug reaction associations of marketed drugs” (Nat Commun, 2023).

Broadly, the AC50 is the concentration at which the activity in the assay is half-maximal. A higher AC50 goes with activity only at high concentration.
Note: assay procedure not described here.

Chain of Sodium-dependent serotonin transporter (P31645 whole entry): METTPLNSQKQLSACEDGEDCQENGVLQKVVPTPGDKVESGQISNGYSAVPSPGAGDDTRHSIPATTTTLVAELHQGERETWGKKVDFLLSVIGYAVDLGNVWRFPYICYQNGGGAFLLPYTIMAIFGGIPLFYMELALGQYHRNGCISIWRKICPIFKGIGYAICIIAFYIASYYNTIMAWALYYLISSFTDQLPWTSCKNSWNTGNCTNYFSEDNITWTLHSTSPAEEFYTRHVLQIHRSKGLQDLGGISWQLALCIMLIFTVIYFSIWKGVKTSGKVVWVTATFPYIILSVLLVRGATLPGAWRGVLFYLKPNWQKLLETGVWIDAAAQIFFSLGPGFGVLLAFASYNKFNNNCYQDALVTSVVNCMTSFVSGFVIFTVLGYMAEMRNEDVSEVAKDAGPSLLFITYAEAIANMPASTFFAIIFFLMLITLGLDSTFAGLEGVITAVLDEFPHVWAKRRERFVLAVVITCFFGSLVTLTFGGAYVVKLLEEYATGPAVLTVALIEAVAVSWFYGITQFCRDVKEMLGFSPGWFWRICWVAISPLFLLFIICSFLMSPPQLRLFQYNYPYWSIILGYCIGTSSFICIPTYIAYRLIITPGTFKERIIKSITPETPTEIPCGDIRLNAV
Chain of Muscarinic acetylcholine receptor M3 (P20309 whole entry): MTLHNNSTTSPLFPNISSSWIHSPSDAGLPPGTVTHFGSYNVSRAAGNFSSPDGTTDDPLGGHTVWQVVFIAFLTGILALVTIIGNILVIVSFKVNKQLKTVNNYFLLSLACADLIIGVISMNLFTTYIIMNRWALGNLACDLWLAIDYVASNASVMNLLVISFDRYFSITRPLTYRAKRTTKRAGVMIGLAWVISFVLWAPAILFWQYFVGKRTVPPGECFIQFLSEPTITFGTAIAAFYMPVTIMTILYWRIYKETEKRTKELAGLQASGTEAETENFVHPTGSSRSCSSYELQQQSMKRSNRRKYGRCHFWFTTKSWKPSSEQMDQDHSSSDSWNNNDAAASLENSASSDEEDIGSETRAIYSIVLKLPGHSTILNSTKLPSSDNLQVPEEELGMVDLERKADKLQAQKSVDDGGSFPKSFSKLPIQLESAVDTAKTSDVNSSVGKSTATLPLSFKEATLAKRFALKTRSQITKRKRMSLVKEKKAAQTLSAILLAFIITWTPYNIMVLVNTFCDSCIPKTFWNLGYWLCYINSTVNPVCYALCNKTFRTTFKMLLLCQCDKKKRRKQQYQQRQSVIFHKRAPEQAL

Regarding `C[C@]12CC[C@H](O)CC1=CC[C@@H]1[C@@H]2CC[C@]2(C)C(c3cccnc3)=CC[C@@H]12` [ABIRATERONE], the AC50 in test [1] is greater than 30 µM; in [2], greater than 10 µM; in test [3] it was greater than 10 µM; in test [4] it was greater than 30 µM; in [5] it was greater than 30 µM; in test [6], greater than 30 µM. Moreover, the AC50 in [7] is greater than 10 µM.
For the compound `C[C@@H]1CCC[C@H](C)N1NC(=O)c1ccc(Cl)c(S(N)(=O)=O)c1` [CLOPAMIDE], the AC50 in [1], in [2], in [3], in test [4], in [8] and in [5] was greater than 30 µM each time. The AC50 in test [9], in test [6] and in test [7] was greater than 30 µM throughout.
Take `O=C(O)CSCC(=O)NC1CCSC1=O` (stereo not drawn) [ERDOSTEINE]: the AC50 in test [1], in [2], in test [4], in [8], in [5] and in [9] was greater than 30 µM each time. In addition, the AC50 in test [6] and in test [7] was greater than 30 µM in each case.
Regarding `COc1cccc(N(C)C(=S)Oc2ccc3c(c2)CCCC3)n1` [LIRANAFTATE], the concentration at half-maximal activity (AC50) in test [1], in [2], in [4], in [8], in test [5] and in [9] was greater than 30 µM in each case. Further, the AC50 in test [6] and in test [7] was greater than 30 µM throughout.
Turning to `N=C(N)c1ccc2cc(OC(=O)c3ccc(N=C(N)N)cc3)ccc2c1` [NAFAMOSTAT], the AC50 in test [1] is greater than 30 µM; in [2], greater than 30 µM; in test [8], greater than 30 µM; in test [5], 15 µM; in [9], 15 µM; in test [6], 8.2 µM. Further, the AC50 in test [7] was determined as 12 µM.
Take `O=C(O)c1cc(O)c2c3nc4ccccc4oc-3cc(=O)c2n1` [PIRENOXINE]: the concentration at half-maximal activity (AC50) in [1] is greater than 30 µM; in test [2] it was greater than 30 µM; in [3] it was greater than 30 µM; in [4] it was greater than 30 µM; in test [8], greater than 30 µM; in test [5], 2.2 µM. In addition, the AC50 is greater than 30 µM in [9], greater than 30 µM in test [6] and 3.8 µM in test [7].
For `NS(=O)(=O)c1cc(C(=O)O)cc(N2CCCC2)c1Oc1ccccc1` [PIRETANIDE], the AC50 in test [1] was greater than 30 µM; in test [2], greater than 30 µM; in test [3], greater than 30 µM; in test [5], greater than 30 µM; in test [6] it was 0.92 µM; in test [7] it was greater than 30 µM.
Turning to `CC(C)=CCOc1ccc(/C=C/C(=O)c2ccc(OCC=C(C)C)cc2OCC(=O)O)cc1` [SOFALCONE], the AC50 in test [1] is greater than 30 µM; in test [2] it was greater than 30 µM; in [4], greater than 30 µM; in [8], greater than 30 µM; in test [5] it was greater than 30 µM; in [9] it was 25 µM. The AC50 in test [6] and in test [7] was greater than 30 µM in each case.
Regarding `OCCN1CCN(CC/C=C2/c3ccccc3Sc3ccc(Cl)cc32)CC1` [ZUCLOPENTHIXOL], the AC50 was greater than 10 µM in test [2]; 6.4 µM in [3]; greater than 30 µM in test [4]; greater than 10 µM in test [5]; 8.4 µM in test [6]; 0.32 µM in test [7].
